Columns and labels:
[1] = Stability in rat hepatocytes; format: in vitro ADME; settings: 0.5 μM, 60 min
[2] = Stability in human hepatocytes; format: in vitro ADME; settings: 0.5 μM, 120 min
[3] = Stability in mouse hepatocytes; format: in vitro ADME; settings: 0.5 μM, 60 min
[4] = Pharmacokinetics in CD-1 IGS mouse; settings: mouse PK studies; for parent recovered in feces following iv administration: data not shown

Structure (SMILES)	scaled Clint, rat hepatocytes [1]	scaled Clint, human hepatocytes [2]	scaled Clint, mouse hepatocytes [3]	oral absorption [4]	parent recovered in feces following iv administration [4]
CC(=O)N1CCN(c2cccc(NC(=O)c3cc4c(F)ccc(C)c4[nH]3)c2)CC1 [compound 3]	283 mL min^–1 kg^–1	32 mL min^–1 kg^–1	678 mL min^–1 kg^–1	–	–
Cc1ccc(F)c2cc(C(=O)N[C@@H]3CCC[C@H](N4CCN5C(=O)CC[C@H]5C4)C3)[nH]c12 [compound 7]	69 mL min^–1 kg^–1	23 mL min^–1 kg^–1	425 mL min^–1 kg^–1	–	–
CC(=O)N1CC[C@H]2CN([C@H]3CCC[C@@H](NC(=O)c4cc5c(F)ccc(C)c5[nH]4)C3)C[C@H]21 [compound 8]	265 mL min^–1 kg^–1	18 mL min^–1 kg^–1	889 mL min^–1 kg^–1	reasonable oral absorption	17–30%
CC(=O)N1CC[C@H]2[C@@H]1CCN2[C@H]1CCC[C@@H](NC(=O)c2cc3c(F)ccc(C)c3[nH]2)C1 [compound 9]	72 mL min^–1 kg^–1	5 mL min^–1 kg^–1	103 mL min^–1 kg^–1	reasonable oral absorption	17–30%

Further lines, results first:

scaled Clint, rat hepatocytes [1]	scaled Clint, human hepatocytes [2]	scaled Clint, mouse hepatocytes [3]	oral absorption [4]	parent recovered in feces following iv administration [4]	Structure (SMILES)
137 mL min^–1 kg^–1	51 mL min^–1 kg^–1	721 mL min^–1 kg^–1	–	–	Cc1ccc(F)c2cc(C(=O)N[C@@H]3CCC[C@H](N4CC[C@H](N(C)S(C)(=O)=O)C4)C3)[nH]c12 [EPZ-719, reference compound]
154 mL min^–1 kg^–1	9 mL min^–1 kg^–1	216 mL min^–1 kg^–1	–	–	CC(=O)N1CCN([C@H]2CCC[C@@H](NC(=O)c3cc4c(F)ccc(C)c4[nH]3)C2)CC1 [EZM0414]

Reference: publication PMC9290024 (ACS Medicinal Chemistry Letters, 2022)
